Results taken from patent US7115614B2, “Method of treating brain ischemia” (Kyowa Hakko Kogyo Co., Ltd., priority 1997, dated 2006).
“And” between values parts separate entries of the source, which are not always exact repeats. Equal entries are not always repeated.

Assays:
dopaminergic neurons = test: Inhibitory action on neurodegeneration: MPTP HCl-treated mice, specific [3H]-mazindol binding in the striatum; format: in vivo, C57BL/6NCrj mice; details: for amount of specifically bound [3H]-mazindol in the striatum: striatum removed after 1 week, mean ± standard error
Procedure: The experiment was conducted according to the method of Sundstrom et al. (Brain. Res. Bulletin, 21, 257–263 (1988)).
In the experiment, 9- to 10-week-old male C57BL/6NCrj mice (supplied by Nippon Charles River) were used. During the period of preliminary breeding, the animals were kept in a laboratory at room temperature (22 to 24° C.) under 50 to 60% humidity and allowed food and water ad libitum.
1-Methyl-4-phenyl-1,2,3,6-tetrahydropyridine hydrochloride (abbreviated hereinafter as MPTP HCl (RBI Co., Ltd.)) was dissolved at a concentration of 4 mg/ml in physiological saline. A test compound was suspended at a concentration of 1 mg/ml in 0.3% […]. Each test group consisted of 9 to 10 animals, and a control group was intraperitoneally given physiological saline, and an MPTP HCl administration group and an MPTP HCl+test compound administration group were intraperitoneally given MPTP HCl (40 mg/kg).
After 1 hour, the control group and the MPTP HCl administration group were orally given 0.3% Tween, and the MPTP HCl+test compound administration group was orally given the test compound (10 mg/kg). After 1 week, the animals were decapitated, and the striatum was removed therefrom under cooling on ice. The striatum was stored in a deep freezer (<−80° C.) before a binding experiment.
A [^3H]-mazindol binding test was conducted in the following method. A striatum and 300 μl of buffer (120 mM NaCl, 5 mM KCl, 50 mM Tris, pH 7.9) were put into a micro-centrifuge tube and homogenized by portable homogenizer S-203 (manufactured by Ikeda Rika) and centrifuged at 15,000 rpm, 4° C. for 5 minutes (by KUBOTA 1710). The precipitates were suspended in 300 μl of buffer and then centrifuged again at 15,000 rpm, 4° C. for 5 minutes. The precipitates were suspended in 500 μl of buffer and then distributed into four test tubes in 100 μl portions. The remaining suspension (100 μl) was used for protein quantification. To determine non-specific binding, nomifensine maleate (RBI Co., Ltd.) (final concentration: 10 μM) as an inhibitor of dopamine uptake was added to two test tubes among the four test tubes. The binding reaction was initiated by adding 25 μl of [^3H]-mazindol (final concentration: 10 nM) (Spec. Act. 888 GBq/mmol, a product of NET). The mixture was incubated for 1 hour under cooling on ice, and the striatum homogenate was adsorbed onto a glass filter (Whatman, GF/B) in a cell harvester and washed three times with 5 ml of buffer. The radioactivity on the glass filter was measured with a liquid scintillation counter. For each striatum, specific [^3H]-mazindol binding was determined by subtracting the average of non-specific [^3H]-mazindol binding from the average of total [^3H]-mazindol binding.
Protein quantification was conducted by use of a Bio-Rad DC protein assay kit (Bio-Rad Co., Ltd.) with bovine serum albumin (Sigma Co., Ltd.) as a standard. Specific [^3H]-mazindol binding was expressed as the amount of bound [^3H]-mazindol per unit weight of protein, and the mean±standard error was determined for each group (10 animals).
In Table 2, the results are expressed in terms of the amount of specifically bound [^3H]-mazindol (fmol/mg protein) in the striatum.

dd-strain male mice = test: Acute toxicity test (minimum lethal dose); format: in vivo; details: oral administration, mortality seven days after the administration
Text: Test compounds were orally or intraperitoneally administered to groups of dd-strain male mice weighing 20±1 g, each group consisting of three mice.

[1] = MPTP HCl 40 mg/kg i.p., test compound 10 mg/kg orally after 1 hour

| Structure (SMILES) | amount of specifically bound [3H]-mazindol in the striatum (dopaminergic neurons; [1]) [fmol/mg protein] | reduction of the amount of specifically bound [3H]-mazindol by administration of MPTP HCl (dopaminergic neurons; statement in words, 10 mg/kg orally, MPTP HCl mice) | minimum lethal dose (MLD) (dd-strain male mice) | amount of specifically bound [3H]-mazindol in the striatum (dopaminergic neurons; MPTP HCl 40 mg/kg i.p. alone (0.3% Tween orally after 1 hour), hydrochloride) |
| --- | --- | --- | --- | --- |
| CCn1c(=O)c2c(nc(/C=C/c3ccc(OC)c(OC)c3)n2C)n(CC)c1=O [Compound 1, (E)-1,3-diethyl-8-(3,4-dimethoxystyryl)-7-methylxanthine] | 950.9 ± 54.1 | inhibited | greater than 1000 mg/kg | – |
| CCCn1c(=O)c2c(nc(/C=C/c3ccc(OC)c(OC)c3)n2C)n(CCC)c1=O [Compound 2, (E)-8-(3,4-dimethoxystyryl)-1,3-dipropyl-7-methylxanthine] | 784.8 ± 41.6 | – | – | – |
| CCn1c(=O)c2c(nc(/C=C/c3cc(OC)c4c(c3)OCO4)n2C)n(CC)c1=O [Compound 3, (E)-1,3-diethyl-8-(3-methoxy-4,5-methylenedioxystyryl)-7-methylxanthine] | 794.9 ± 28.5 | – | – | – |
| COc1cc(/C=C/c2nc3c(c(=O)n(C)c(=O)n3C)n2C)cc(OC)c1OC [Compound 4, (E)-8-(3,4,5-trimethoxystyryl)caffeine] | 923.5 ± 51.1 | – | – | – |
| CN1CC=C(c2ccccc2)CC1.Cl [MPTP HCl, 1-Methyl-4-phenyl-1,2,3,6-tetrahydropyridine hydrochloride, reference compound] | – | – | – | 674.2 ± 38.1 fmol/mg protein and 616.3 ± 32.8 fmol/mg protein and 621.2 ± 27.7 fmol/mg protein |
